In patent US6943026B1, “Antitumour vector constructs and methods” (Cyclacel Limited, priority 1995, dated 2005):

Test system: Saos-2 cells
Experiment: GCV tolerance (toxicity of GCV alone to cells)
Assay type: cell-based, human
Conditions: 1.25×10^−5-6.2×10^−5M
Experimental: The GCV tolerance profile of Saos-2 cells was determined in parallel by treating the cells with various concentrations of GCV (ranging from 0.1 μmole to 2 mM).
The toxicity of the GCV to cells were analysed by subjecting the cells to various concentration of GCV (ranging from 0.1 μmole to 2 mM GCV at 37° C.) for 3 days. The remaining steps of the treatment were carried out as the tk-GCV assay.

Nc1nc(O)c2ncn(COC(CO)CO)c2n1 [Gancyclovir, Ganciclovir]
effect on cell viability of gancyclovir by itself: no effect
